These are literature values, as cited in patent US20120093797A1, “COMBINED USE OF CREATINE PHOSPHATE AND CREATINE PHOSPHOKINASE FOR TREATMENT OF ARTERIOSCLEROSIS” (ARTCELL INVEST LTD., priority 2009, published 2012).

For the compound `CN(CC(=O)O)C(=N)NP(=O)(O)O` [CP, 2-[(amino-phosphonoimino-methyl)-methyl-amino]acetic acid], the “Half-life of CP” value was 4 to 7 min.
